Reference: the NIST ThermoML archive (doi:10.1016/j.fluid.2004.11.019)
± gives the expanded uncertainty stated by the source.

Conditions: Liquid

CCO [ethanol]
mass density [kg/m3]
Conditions | 100 kPa | 10000 kPa | 20000 kPa | 30000 kPa | 40000 kPa
298.15 K | 785.7 ± 0.4 | 794 ± 0.4 | 801.9 ± 0.6 | 808.9 ± 0.7 | 815.7 ± 0.8
323.15 K | 763.7 ± 0.4 | 773.4 ± 0.5 | 782.3 ± 0.6 | 790.3 ± 0.7 | 797.7 ± 0.9
348.15 K | 739.4 ± 0.4 | 751.2 ± 0.5 | 761.2 ± 0.6 | 770.3 ± 0.8 | 778.6 ± 0.9
